Experiments:
[1] = tested on: GABAA receptor β3 subunit S408/9; assay: Immunoblot of β3 S408/9 phosphorylation in hippocampal slices; type: cell-based, mouse; details: 100 nM
Protocol: Asterisks represent a significant difference from control (ALLO: p<0.01, Student's t-test, n=10 slices, from 10 mice; SGE-516: p<0.05, Student's t-test, n=4 slices, from 4 mice). […] Asterisks represent a significant difference from control (ALLO: p<0.05, Student's t-test, n=8 slices; SGE-516: p<0.05, Student's t-test, n=4 slices).
Hippocampi were dissected out of acute slices from 8 to 12 week old C57/Bl6 mice and lysed with […] including: 20 mM Tris-HCl, 150 mM NaCl, 5 mM EDTA, 10 mM NaF, 2 mM Na3VO4, 10 mM pyrophosphate, 0.1% SDS and 1% Triton after drug treatment. The β3 subunit was isolated using immunoprecipitation with β3 antibodies, after correction for protein content and the specific activity of labeling. Results were attained by SDS/PAGE followed by autoradiography (Abramian et al., 2010). For biotinylation experiments hippocampi were dissected out of acute slices from 8 to 12 week old C57/Bl6 mice and incubated in artificial cerebrospinal fluid (ACSF) described above at 30° C. for 1 h for recovery before experimentation. Slices were then placed on ice and incubated for 30 min with 1 mg/mL NHS-SS-biotin (Pierce). Excess biotin was removed by a 50 mM glycine quenching buffer, followed by washing of slices three times in ice-cold ACSF. The tissue was snap frozen on dry ice for 5 min, thawed at 4° C. and lysed. The lysates were solubilized with 2% Triton at 4° C. on a rotating wheel for 1 h. The insoluble material was removed by centrifugation, and 350-500 μg of protein lysate were incubated with NeutrAvidin beads (Pierce) for 18-24 h at 4° C. Bound material was eluted with sample buffer and subjected to SDS/PAGE and then immunoblotted with the indicated antibodies. Blots were then quantified using the CCD-based ChemiDoc XRS ? system. Antibodies against the β3 subunit and the phospho-β3 antibody were generated and verified by the laboratory of S.J.M. (Vien et al., 2015).
Treatment of hippocampal slices with SGE-516 increased the phosphorylation of S408/9 measured using pS408/9 antibodies. To produce antibodies specific for phosphorylated S443, rabbits were injected with a synthetic peptide corresponding to residues […] of the murine α4 subunit in which the serine residue corresponding to S443 was chemically phosphorylated; […]. Hippocampal slices were treated with vehicle (Con), or SGE-516 for 20 min. Slices were immunoblotted with pS408/9, β3, or actin antibodies. The ratio of pS408/9/β3 immunoreactivity was then normalized to control slices (100%=the line).
Hippocampal slices were treated with 100 nM ALLO or P4 (progesterone), and S408/9 phosphorylation was then determined as detailed above, n=4 slices (FIG. 18D). Hippocampal slices were treated with 100 nM ORG (FIG. 18E). S408/9 phosphorylation was examined using immunoblotting. […]

[2] = tested on: dentate gyrus granule cells (DGGCs); type: cell-based, mouse; details: protocol as FIG. 3
Protocol: Brain slices were prepared from 3- to 5-week-old male C57 mice. Mice were anesthetized with isoflurane, decapitated, and brains were rapidly removed and submerged in ice-cold cutting solution containing (mM): 126 NaCl, 2.5 KCl, 0.5 CaCl2, 2 MgCl2, 26 NaHCO3, 1.25 NaH2PO4, 10 glucose, 1.5 sodium pyruvate, and 3 kynurenic acid. Coronal 310 μm thick slices were cut with the vibratome VT1000S (Leica Microsystems, St Louis, Mo., USA). The slices were then transferred into incubation chamber filled with prewarmed (31-32° C.) oxygenated artificial cerebro-spinal fluid (ACSF) of the following composition (in mM): 126 NaCl, 2.5 KCl, 2 CaCl2, 2 MgCl2, 26 NaHCO3, 1.25 NaH2PO4, 10 glucose, 1.5 sodium pyruvate, 1 glutamine, 3 kynurenic acid and 0.005 GABA bubbled with 95% O2-5% CO2. Slices were allowed to recover at 32° C. for at least 1 hr before recording. Exogenous GABA was added in an attempt to standardize ambient GABA in the slice and provide an agonist source for newly inserted extrasynaptic GABAARs.
After recovery, a single slice was transferred to a submerged, dual perfusion recording chamber (Warner Instruments, Hamden, Conn., USA) on the stage of an upright microscope (Nikon FN-1) with a 40× water immersion objective equipped with DIC/IR optics. Slices were maintained at 32° C. and gravity-superfused with ACSF solution throughout experimentation and perfused at rate of 2 ml/min with oxygenated (O2/CO2 95/5%) ACSF.
Whole-cell currents were recorded from the dentate gyrus granule cells (DGGCs) in 310-μm-thick coronal hippocampal slices. Patch pipettes (5-7MΩ) were pulled from borosilicate glass (World Precision Instruments) and filled with intracellular solution of the composition (in mM) as follows: 140 CsCl, 1 MgCl2, 0.1 EGTA, 10 HEPES, 2 Mg-ATP, 4 NaCl and 0.3 Na-GTP (pH=7.2 with CsOH). A 5 min period for stabilization after obtaining the whole-cell recording conformation (holding potential of −60 mV) was allowed before currents were recorded using an Axopatch 200B amplifier (Molecular Devices), low-pass filtered at 2 kHz, digitized at 20 kHz (Digidata 1440A; Molecular Devices), and stored for offline analysis.
For tonic current measurements, an all-points histogram was plotted for a 10 s period before and during 100 μM picrotoxin application, once the response reached a plateau level. Recordings with unstable baselines were discarded. Fitting the histogram with a Gaussian distribution gave the mean baseline current amplitude and the difference between the amplitudes before and during picrotoxin was considered to be the tonic current. The negative section of the all-points histogram which corresponds to the inward IPSCs was not fitted with a Gaussian distribution (Kretschmannova et al., 2013; Nusser and Mody, 2002). Series resistance and whole-cell capacitance were continually monitored and compensated throughout the course of the experiment. Recordings were eliminated from data analysis if series resistance increased by >20%. Spontaneous inhibitory post-synaptic currents (sIPSCs) were analyzed using the mini-analysis software (version 5.6.4; Synaptosoft, Decatur, Ga.). Minimum threshold detection was set to 3 times the value of baseline noise signal. To assess sIPSC kinetics, the recording trace was visually inspected and only events with a stable baseline, sharp rising phase, and single peak were used to negate artifacts due to event summation. Only recordings with a minimum of 200 events fitting these criteria were analyzed. sIPSCs amplitude, and frequency from each experimental condition was pooled and expressed as mean±SEM. To measure sIPSC decay, 100 consecutive events were averaged and the decay was fitted to a double exponential and the weighted decay constant (tw) was determined. Statistical analysis was performed by using Student t-test (paired and unpaired where appropriate), where p<0.05 is considered significant.

[3] = tested on: GABAARs composed of α4β3 subunits; assay: Acute modulation of IGABA in HEK-293 expressing GABAARs; type: cell-based; details: 100 mM (so in the source), rapidly applied with GABA
GT1-7 cells [4] = assay: Patch-clamp of GABA-induced currents (IGABA) in GT1-7 cells; type: cell-based; details: 100 nM in electrolyte, GABA EC20, 20 min time course
Protocol: Patch-clamp recordings were made from GT1-7 cells. The magnitude of the GABA-induced currents (IGABA) at EC20 agonists concentration were then measured, in the presence of control electrolyte or that supplemented with 100 nM ALLO, or 100 nM ORG OD 02-0 over a time course of 20 min.

GT1-7 cells [5] = assay: Immunoblot of β3 S408/9 phosphorylation in GT1-7 cells; type: cell-based; details: 100 nM, 15 min
Protocol: GT1-7 cells that co-express mPRα and GABAARs were used to measure the level of phosphorylation at S408/9 position of β3 subunit. […] Expression of mPRα was confirmed using western blotting.
GT1-7 cells were treated with 100 nM AllO or P4 for 15 min and immunoblotted with antibodies specifically recognizing β3, actin, and […] β3 subunit (pS408/9). The ratio of pS408/9 β3 subunit immunoreactivity were then normalized to levels seen in vehicle treated to controls, n=6.

[6] = tested on: dentate gyrus granule cells (DGGCs); details: Abramian et al., 2010, 2014; cited from earlier work
α4β3δ GABAA receptors = target: T1, α4β3δ GABAA receptors (Homo sapiens, UniProt O14764+P28472+P48169); assay: Whole-cell patch clamp: potentiation of GABA EC20 currents at recombinant α4β3δ GABAA receptors; type: cell-based; details: data not shown
T1 construct: expressed in transfected cells; host or cells: CHO cells, transiently transfected (Lipofectamine)
Protocol: Cellular electrophysiology was used to measure the pharmacological properties of ALLO, ganaxolone and SGE-516 in heterologous cell systems. Compounds were tested for their ability to affect GABA mediated currents at a submaximal agonist dose (GABA EC20=2 μM).
LTK cells were stably transfected with the α1β2γ2 subunits of the GABA receptor and CHO cells are transiently transfected with the α4β3γ subunits via the Lipofecatamine method. Cells were passaged at a confluence of about 50-80% and then seeded onto 35 mm sterile culture dishes containing 2 ml culture complete medium without antibiotics or antimycotics. Cells were cultivated at a density that enabled the recording of single cells without visible connections to other cells.
Whole-cell currents were measured with HEKA EPC-10 amplifiers using PatchMaster software. Bath solution for all experiments contained (in mM): NaCl 137, KCl 4, CaCl2 1.8, MgCl2 1, HEPES 10, D-Glucose 10, pH 7.4 with NaOH. Intracellular (pipette) solution contained (in mM): KCl 130, MgCl2 1, Mg-ATP 5, HEPES 10, EGTA 5, pH 7.2 with KOH. During experiments, cells and solutions were maintained at room temperature (19° C.-30° C.). For manual patchclamp recordings, cell culture dishes were placed on the dish holder of the microscope and continuously perfused (1 ml/min) with bath solution. After formation of a Gigaohm seal between the patch electrode and the cell (pipette resistance range: 2.5 MΩ-6.0MΩ; seal resistance range: >1 GΩ) the cell membrane across the pipette tip was ruptured to assure electrical access to the cell interior (whole-cell patch configuration).
Cells were voltage-clamped at a holding potential of −80 mV. GABAA receptors were activated by 2 μM GABA and compounds were sequentially applied at increasing concentrations for 30 s prior to a 2 s application of GABA. GABA and compounds were applied to cells via the Dynaflow perfusion system (Cellectricon, Sweden). Test compounds were dissolved in DMSO to form 10 mM stock solution and serially diluted to 0.01, 0.1, 1, and 10 μM in bath solution. There was no effect on GABA currents when DMSO was applied to cells at its maximal concentration in solution (0.1%). All concentrations of test compound were tested on each cell. The relative percentage potentiation was defined as the peak amplitude in response to GABA EC20 in the presence of test compound divided by the peak amplitude in response to GABA EC20 alone, multiplied by 100.
ALLO and ganaxolone are known PAMs of both synaptic and extrasynaptic GABAAR-mediated currents. The ability of candidate compound SGE-516 to act as a PAM was compared to ALLO and ganaxolone using the whole-cell recordings of recombinant human GABAA receptors expressed in mammalian cells. The α1β2γ2 or α4β3δ subunit combinations were chosen as representatives of typical synaptic and extrasynaptic GABAA receptors respectively. Similar to previous reports (Botella et al., 2015), ALLO, ganaxolone and SGE-516 allosterically potentiated currents induced by EC20 concentration of GABA in a concentration-dependent manner in both synaptic- and extrasynaptic-type GABAARs.

T1 sequence (P48169 36-554): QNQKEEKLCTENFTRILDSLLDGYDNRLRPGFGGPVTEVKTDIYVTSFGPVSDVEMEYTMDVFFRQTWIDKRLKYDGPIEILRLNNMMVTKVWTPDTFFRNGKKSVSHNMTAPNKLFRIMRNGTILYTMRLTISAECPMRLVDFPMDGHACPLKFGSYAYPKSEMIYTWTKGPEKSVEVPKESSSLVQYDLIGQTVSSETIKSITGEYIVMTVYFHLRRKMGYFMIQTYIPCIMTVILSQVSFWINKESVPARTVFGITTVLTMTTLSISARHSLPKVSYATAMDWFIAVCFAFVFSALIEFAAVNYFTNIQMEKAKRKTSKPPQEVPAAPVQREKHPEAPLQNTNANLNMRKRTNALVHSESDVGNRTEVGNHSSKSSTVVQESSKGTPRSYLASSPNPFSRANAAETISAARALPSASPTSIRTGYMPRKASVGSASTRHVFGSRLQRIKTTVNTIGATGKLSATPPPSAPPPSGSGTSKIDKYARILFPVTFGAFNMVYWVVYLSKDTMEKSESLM
T1 sequence (P28472 26-473): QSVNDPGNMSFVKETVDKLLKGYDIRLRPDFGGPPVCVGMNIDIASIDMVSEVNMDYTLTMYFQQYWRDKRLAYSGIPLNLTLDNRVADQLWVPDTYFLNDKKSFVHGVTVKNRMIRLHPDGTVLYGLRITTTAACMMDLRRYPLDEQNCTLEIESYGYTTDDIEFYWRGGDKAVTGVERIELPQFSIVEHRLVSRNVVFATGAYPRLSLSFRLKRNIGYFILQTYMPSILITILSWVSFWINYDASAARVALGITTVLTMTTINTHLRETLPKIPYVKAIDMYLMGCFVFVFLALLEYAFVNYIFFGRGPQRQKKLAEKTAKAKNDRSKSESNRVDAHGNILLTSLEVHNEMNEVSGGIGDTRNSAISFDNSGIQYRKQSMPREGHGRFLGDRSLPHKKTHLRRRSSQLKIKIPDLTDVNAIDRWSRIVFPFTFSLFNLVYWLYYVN
T1 sequence (O14764 25-452): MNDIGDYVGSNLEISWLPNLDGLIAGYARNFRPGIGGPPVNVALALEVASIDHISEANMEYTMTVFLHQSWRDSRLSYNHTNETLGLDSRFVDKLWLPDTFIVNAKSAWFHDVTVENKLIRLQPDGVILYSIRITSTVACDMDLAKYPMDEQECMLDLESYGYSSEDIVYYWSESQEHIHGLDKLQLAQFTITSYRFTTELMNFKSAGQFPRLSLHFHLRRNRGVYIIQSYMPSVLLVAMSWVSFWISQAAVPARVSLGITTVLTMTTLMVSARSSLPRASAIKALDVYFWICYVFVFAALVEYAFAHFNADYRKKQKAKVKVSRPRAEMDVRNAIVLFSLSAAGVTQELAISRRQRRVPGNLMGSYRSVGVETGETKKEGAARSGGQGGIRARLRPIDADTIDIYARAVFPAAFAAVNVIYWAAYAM

In the case of `C=C[C@]12CCC(=O)C=C1CCC1C2CC[C@@]2(C)C1CC[C@@H]2C(C)=O` (stereo partly drawn) [ORG OD 02-0], the “S408/9 phosphorylation in hippocampal slices (FIG. 18)” value [1] is reported as “regulated”, the “amplitude and density of GABAergic tonic current, varying doses” value [2] is reported as “dosage-dependent effect” and the “acute modulation of function of GABAARs composed of α4β3 subunits” value [3] is reported as “did not acutely modulate”. The “GABA-evoked currents recorded from GT1-7 cells” value (GT1-7 cells [4]) was “sustained increases”.
For `CC(=O)[C@H]1CC[C@H]2[C@@H]3CCC4=CC(=O)CC[C@]4(C)[C@H]3CC[C@]12C` [P4, Progesterone], the “S408/9 phosphorylation in hippocampal slices (FIG. 18)” value [1] was “regulated”, the “amplitude and density of GABAergic tonic current, varying doses” value [2] was “dosage-dependent effect” and the “S408/9 phosphorylation in GT1-7 cells” value (GT1-7 cells [5]) was “increase”.
In the case of `C[C@]12CC[C@@H](O)C[C@H]1CC[C@@H]1[C@@H]2CC[C@]2(C)[C@@H](C(=O)CO)CC[C@@H]12` [THDOC, Tetrahydrodeoxycorticosterone], the “sustained effect on GABAergic tonic current” value [6] is listed as “long lasting increase”.
For `CN1C(=O)CN=C(c2ccccc2)c2cc(Cl)ccc21` [diazepam], the “effect on GABA evoked currents in α4β3δ receptors” value (α4β3δ GABAA receptors) was “did not alter”.
